Calls of active or inactive are those of the source.
Assays:
[1] = Luminescence Cell-Based Dose Confirmation HTS to Identify Inhibitors of Polyadenylation.; assay type: functional
[2] = M. tuberculosis H37Rv growth inhibitors, H37Rv strain (AID 1626); assay type: functional
[3] = inhibitors of firefly luciferase expression or activity, dose response, H4 neuroglioma cells, luminescence (AID 1990); assay type: functional, cell-based
BJ [4] = assay: cytotoxicity toward BJ-TERT fibroblasts, dose response, cell-based, RAS-independent, luminescence (AID 1933); assay type: functional; conditions: Homo sapiens
[5] = Luminescence Cell-Based Dose Response HTS to Identify Inhibitors of 5'UTR Stem-Loop Driven Prion Protein mRNA Translation in H4 Neuroglioblastoma Cells. [Related pubchem assays: 1827 (Project Summary), 1813 (Primary HTS)]; assay type: functional
[6] = inhibitors of SNCA 5'UTR-driven reporter translation, confirmation, H4 neuroglioma cells, luminescence (AID 1988); assay type: functional, cell-based
BJ [7] = assay: cells; assay type: functional, cell-based; conditions: Homo sapiens
[8] = Luminescence-based dose response cell-based high throughput screening assay for cytotoxic compounds using the IEC-6 intestinal epithelial cell line. [Related pubchem assays: 1858 (Summary AID.), 1825 (Counterscreen.), 1907 (Confirmation screen.)]; assay type: functional
BJ [9] = assay: cytotoxicity toward BJ-TERT-LT-ST fibroblasts, dose response, cell-based, RAS-independent, luminescence (AID 1935); assay type: functional; conditions: Homo sapiens;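 also: BJ fibroblasts immortalized with TERT plus LT and ST oncogenes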
[10] = cytotoxicity toward DRD oncogenic fibroblasts, dose response, cell-based, non-viral oncogenic, luminescence (AID 1934); assay type: functional; conditions: Homo sapiens
[11] = cytotoxicity in HEK-293T cells, dose response, cytotoxicity control for TCR NF-kB inhibitor project, luminescence, T-cell screen hits (AID 489026); assay type: functional, cell-based;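 also: cells exposed to compound about 14 hours before the viability readout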
BJ [12] = assay: cytotoxicity toward Ras-transformed BJeLR fibroblasts, dose response, cell-based, alamar blue fluorescence, cherrypicked samples (AID 2631); assay type: functional; conditions: Homo sapiens;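 also: confirmatory dose-response assay in RAS-dependent BJ fibroblasts engineered with TERT, LT and ST, with cytotoxicity read by fluorescence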
Paired box protein Pax-8 = Paired box protein Pax-8 (Homo sapiens, UniProt Q06710); assay: inhibitors of PAX8-driven TPO luciferase reporter, dose response, RMG-I cells, cherry-pick (AID 687027); assay type: functional, cell-based;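 also: luciferase reporter driven by Pax8 target thyroperoxidase promoter measured by SteadyGlo luminescence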
HEK293 [13] = assay: NOD1 signaling inhibitors, primary screen, cell-based, luminescence, uHTS (AID 1578); assay type: functional; conditions: Homo sapiens
HEK293 [14] = assay: cells; assay type: functional, cell-based; conditions: Homo sapiens
Galanin receptor type 2 = biological target: T1, Galanin receptor type 2 (Homo sapiens, UniProt O43603); assay: Dose Response cell-based high-throughput screening assay to identify antagonists of galanin receptor 2 (GALR2). [Related pubchem assays: 828, 866 ]; assay type: functional
T1 sequence (O43603 whole entry): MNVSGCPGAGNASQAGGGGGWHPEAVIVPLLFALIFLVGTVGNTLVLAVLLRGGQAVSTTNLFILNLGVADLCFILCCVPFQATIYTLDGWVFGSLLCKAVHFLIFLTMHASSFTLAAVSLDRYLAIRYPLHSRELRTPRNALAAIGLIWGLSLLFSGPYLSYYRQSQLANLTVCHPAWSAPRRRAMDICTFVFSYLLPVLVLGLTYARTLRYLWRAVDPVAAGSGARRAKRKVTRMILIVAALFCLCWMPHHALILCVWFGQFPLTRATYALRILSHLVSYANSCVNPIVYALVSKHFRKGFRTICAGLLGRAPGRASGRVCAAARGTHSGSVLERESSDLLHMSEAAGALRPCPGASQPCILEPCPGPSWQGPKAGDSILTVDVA

HEK293 [15] = assay: cells; assay type: functional, cell-based; conditions: Homo sapiens; remark: listed apart in the source
[16] = biological target: Nucleotide-binding oligomerization domain-containing protein 2 (Homo sapiens, UniProt Q9HC29); assay: NOD2 signaling inhibitors, cell-based, luminescence, uHTS, HEK293 (AID 1566); assay type: functional
HEK293 [17] = assay: NOD2 signaling inhibitors in MDP-stimulated cells, cell-based, uHTS, luminescence (AID 2001); assay type: functional; conditions: Homo sapiens
HEK293 [18] = assay: cells; assay type: functional, cell-based; conditions: Homo sapiens; remark: listed apart in the source
INS1 = assay: beta cell apoptosis inhibitors, cytokine rescue, dose response, luminescence, retest (AID 449756); assay type: functional, cell-based; conditions: Rattus norvegicus;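 also: cell death triggered by IL-1 beta plus TNF-alpha plus IFN-gamma mixture; protective hits raise ATP signal compared with cytokine alone wells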
[19] = inhibitors of clade B AD8 Env fusion, dose response, cell-based, cherry-pick (AID 652062); assay type: functional;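 also: luciferase signal from cell-cell fusion driven by HIV-1 clade B AD8 Env; potency is for inhibitors of fusion seen as a drop in luminescence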
[20] = luciferase reporter signal reduction – luminescence, H4-C neuroglioblastoma cells, dose response (AID 2458); assay type: functional, cell-based;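 also: H4 neuroglioblastoma cells stably carrying a luciferase reporter gene fusion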
cells [21] = assay type: functional, cell-based
[22] = inhibitors of intracellular T. cruzi replication, confirmation, NIH3T3 host cells, beta-gal luminescence (AID 2044); assay type: functional, cell-based;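 also: intracellular parasites grown in NIH/3T3 mouse fibroblasts as host cells; luminescent beta-galactosidase reporter signal from transgenic T. cruzi replicating inside host cells; inhibitors lower the luminescence signal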
[23] = inhibitors of SNCA 5'UTR-driven translation, confirmation, luminescence, H4 neuroglioblastoma cells, dose confirmation (AID 2454); assay type: functional, cell-based;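 also: H4 neuroglioblastoma cells carrying an alpha-synuclein 5'UTR luciferase reporter; potency for inhibition of the luciferase signal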
cells [24] = assay: cells
[25] = cytotoxicity toward NIH3T3 fibroblasts, dose response, counter-screen, cell-based, ATP luminescence, mouse fibroblasts (AID 2010); assay type: functional;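 also: cells exposed to compound for about 90 hours before reading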
[26] = Luminescence Cell-Based Dose Retest to Confirm Inhibitors of Cancer Stem Cells. [Related pubchem assays (depositor defined):AID2717, AID2721]; assay type: functional, Homo sapiens; conditions: Homo sapiens
[27] = Shn3 3'UTR reporter inhibitors, dose response, cell-based, Clone20 osteoblasts, firefly luciferase, cherry-picked (AID 624132); assay type: functional;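 also: firefly luciferase luminescence from reporter carrying the Shn3 3'UTR in osteoblasts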
[28] = HepG2 cell cytotoxicity, dose response, cytotoxicity control for Shn3 inhibitor project, CellTiter-Glo, cherry-picked (AID 624134); assay type: functional, cell-based
[29] = control 3'UTR Renilla luciferase suppression, dose response, counter-screen for Shn3 inhibitor project, cell-based, Clone20-Shn3RL, cherry-picked (AID 624133); assay type: functional

Nucleotide-binding oligomerization domain-containing protein 2, sequence (Q9HC29 whole entry, the tested form may be a part): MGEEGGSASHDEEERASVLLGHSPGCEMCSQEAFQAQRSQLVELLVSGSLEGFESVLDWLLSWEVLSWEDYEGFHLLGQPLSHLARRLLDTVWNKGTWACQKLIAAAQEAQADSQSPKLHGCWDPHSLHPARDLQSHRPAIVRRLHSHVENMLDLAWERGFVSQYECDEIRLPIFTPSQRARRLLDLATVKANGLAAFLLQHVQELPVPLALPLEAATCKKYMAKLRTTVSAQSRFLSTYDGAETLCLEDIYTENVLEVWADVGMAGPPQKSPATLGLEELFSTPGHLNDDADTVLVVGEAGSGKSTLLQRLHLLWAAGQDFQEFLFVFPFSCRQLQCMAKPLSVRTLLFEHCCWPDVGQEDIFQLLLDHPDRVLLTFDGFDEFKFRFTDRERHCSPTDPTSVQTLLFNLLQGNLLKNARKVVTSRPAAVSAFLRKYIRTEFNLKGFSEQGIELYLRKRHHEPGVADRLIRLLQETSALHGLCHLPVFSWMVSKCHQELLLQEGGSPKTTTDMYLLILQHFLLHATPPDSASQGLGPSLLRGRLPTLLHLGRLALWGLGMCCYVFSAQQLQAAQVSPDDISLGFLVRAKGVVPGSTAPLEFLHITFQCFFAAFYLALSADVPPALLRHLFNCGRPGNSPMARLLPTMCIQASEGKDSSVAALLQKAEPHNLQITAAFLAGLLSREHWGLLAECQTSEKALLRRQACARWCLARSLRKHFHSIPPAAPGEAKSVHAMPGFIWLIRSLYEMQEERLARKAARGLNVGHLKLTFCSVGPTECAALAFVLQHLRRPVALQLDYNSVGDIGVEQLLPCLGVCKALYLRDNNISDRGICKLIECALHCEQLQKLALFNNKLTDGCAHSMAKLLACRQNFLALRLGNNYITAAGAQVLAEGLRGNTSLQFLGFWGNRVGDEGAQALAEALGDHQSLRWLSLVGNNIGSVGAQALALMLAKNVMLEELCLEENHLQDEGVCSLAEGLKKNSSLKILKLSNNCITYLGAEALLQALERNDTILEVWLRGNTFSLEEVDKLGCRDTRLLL
Paired box protein Pax-8, sequence (Q06710 whole entry): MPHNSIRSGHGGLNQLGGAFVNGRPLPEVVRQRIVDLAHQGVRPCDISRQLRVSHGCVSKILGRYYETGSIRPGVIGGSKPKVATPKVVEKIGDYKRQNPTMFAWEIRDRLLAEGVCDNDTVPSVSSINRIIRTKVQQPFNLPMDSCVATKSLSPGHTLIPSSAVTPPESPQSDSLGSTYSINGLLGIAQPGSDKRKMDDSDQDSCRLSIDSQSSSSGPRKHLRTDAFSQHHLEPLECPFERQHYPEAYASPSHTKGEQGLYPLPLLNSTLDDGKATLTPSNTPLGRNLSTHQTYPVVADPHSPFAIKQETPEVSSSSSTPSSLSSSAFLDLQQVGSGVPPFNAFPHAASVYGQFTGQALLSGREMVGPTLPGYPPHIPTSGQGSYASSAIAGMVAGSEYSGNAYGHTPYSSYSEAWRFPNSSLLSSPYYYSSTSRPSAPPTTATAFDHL

Structure (SMILES): Cn1cccc1Cc1nnc(SCC(=O)NCc2ccccc2Cl)n1-c1ccc(F)cc1
- EC50 [1]: > 120 µM (not active)

Structure (SMILES): Cc1ccc2[nH]c(SCC(=O)Nc3ccc4c(c3)CCC4)nc2c1
- IC50 [2]: > 100 µM (active)

Structure (SMILES): COc1ccc(CCNc2nnc(Sc3nnnn3-c3ccccc3)s2)cc1OC
- EC50 [3]: 5.51 µM (active)
- EC50 (BJ [4]): 2.95 µM (active)
- EC50 [5]: 10.8 µM (active)
- EC50 [6]: 5.09 µM (active)
- EC50 (BJ [7]): 3.24 µM (active)
- IC50 [8]: 2.49 µM (active)
- EC50 (BJ [9]): 2.35 µM (inconclusive)
- EC50 [10]: 2.38 µM (active)
- IC50 [11]: > 80 µM (inactive)
- EC50 (BJ [12]): 0.616 µM (active)
- AC50 (Paired box protein Pax-8): 4.21 µM (active)

Structure (SMILES): O=C(NC(=S)Nc1ccc(NC(=O)c2ccco2)cc1)c1ccccc1
- EC50 [1]: > 120 µM (not active)

Structure (SMILES): Cc1nc2ccc(NC(=O)c3cc(S(=O)(=O)N(C)c4ccccc4)ccc3Cl)cc2s1
- EC50 (HEK293 [13]): 2.55 µM (active)
- IC50 (HEK293 [14]): 5.43 µM (active)
- IC50 (Galanin receptor type 2): > 42 µM (not active)
- IC50 (HEK293 [15]): > 20 µM (inactive)
- EC50 [16]: > 20 µM (inactive)
- IC50 (HEK293 [17]): 3.91 µM (inactive)
- IC50 (HEK293 [18]): > 20 µM (inactive)
- AC50 (INS1): 1.72 µM (active)
- AC50 [19]: 2.17 µM (active)

Structure (SMILES): O=C(O)C1CCCCC1C(=O)Nc1ccccc1Nc1ccccc1 (stereo unspecified)
- IC50 [2]: > 100 µM (active)

Structure (SMILES): CC(=O)O[C@H]1C(=O)[C@@]2(C)C([C@H](OC(=O)c3ccccc3)[C@]3(O)C[C@H](OC(=O)[C@H](O)[C@@H](NC(=O)c4ccccc4)c4ccccc4)C(C)=C1C3(C)C)[C@]1(OC(C)=O)CO[C@@H]1C[C@H]2O (stereo partly specified)
- EC50 [3]: < 0.1 µM (active)
- EC50 [20]: 0.268 µM (active)
- EC50 (cells [21]): 0.222 µM (active)
- EC50 [6]: < 0.1 µM (active)
- EC50 [22]: < 0.1 µM (active)
- IC50 [8]: 0.0719 µM (active)
- EC50 [23]: 0.279 µM (active)
- IC50 [11]: > 80 µM (inactive)
- EC50 (cells [24]): < 0.004 µM (active)

Structure (SMILES): Cc1cc(Nc2cccc(Cl)c2)nc(NCc2ccccc2)n1
- IC50 (Galanin receptor type 2): > 42 µM (not active)
- EC50 [22]: 0.177 µM (active)
- EC50 [25]: > 60 µM (inconclusive)
- AC50 [26]: 5.51 µM (active)
- AC50 (INS1): 3.21 µM (active)
- AC50 [27]: 1.64 µM (active)
- AC50 [28]: 53 µM (active)
- AC50 [29]: 6.41 µM (active)

Reference: ChEMBL document CHEMBL1201862, “PubChem BioAssay data set” (2004)
